The values below come from patent US20030044413A1, “Methods of limiting apoptosis of cells” (Regents of the University of Minnesota, priority 1998, published 2003).

What all share (format): cell-based
The test system of experiment [1] is primary rat hepatocytes. Put plainly: Ethanol-induced apoptosis, Hoechst staining, primary rat hepatocytes. Here is the method:
Incubation of cells with ethanol, TGF-β1, anti-Fas antibody or okadaic acid. Freshly isolated rat hepatocytes were cultured for 3 h as described above and then incubated with William's E medium supplemented with either 0.5% ethanol, 50 μM UDCA, ethanol plus UDCA, or no addition (control) for 2 h and 4 h. HuH-7 cells were incubated with Dulbecco's medium supplemented with either 1 nM TGF-β1 (R & D Systems, Minneapolis, Minn.), 100 μM UDCA, TGF-β1+UDCA, or no addition (control) for 24 h, 48 h, and 72 h. Hep G2 cells were incubated with Dulbecco's medium supplemented with either 0.5 μg/ml of anti-Fas antibody CH-11 (Upstate Biotechnology, Inc., Lake Placid, N.Y.), 100 μM UDCA, CH-11+UDCA, or no addition for 48 h. Both HuH-7 cells and human osteogenic sarcoma Saos-2 cells were cultured in Dulbecco's medium supplemented with either 50 nM okadaic acid (Boehringer Mannheim Biochemicals, Inc, Indianapolis, Ind.), 100 μM UDCA, okadaic acid+UDCA, or no addition for 48 h. In all the combination groups, cells were pretreated with UDCA alone for 60 min prior to addition of ethanol, TGF-β1, anti-Fas antibody or okadaic acid.
Morphological evaluation of apoptosis. Morphology was performed as described previously (Oberhammer et al., Proc. Natl. Acad. Sci. USA 89, 5408-5412 (1992)). Briefly, after fixation (with 4% formaldehyde in PBS, pH 7.4, for 10 min at room temperature), the cells were incubated with Hoechst dye 33258 (Sigma Chemical Co.) at 5 μg/ml in PBS for 5 min, washed with PBS and mounted with PBS:glycerol (3:1, v/v). Fluorescence was visualized with a Zeiss standard fluorescence microscope (Carl Zeiss, Inc., Thornwood, N.Y.). Photographs were taken with Kodak Ektar-1000 film (Eastman Kodak Co.). Stained nuclei were scored by blind analysis and categorized according to the condensation and staining characteristics of chromatin. Normal nuclei were identified as noncondensed chromatin dispersed over the entire nucleus. Apoptotic nuclei were identified by condensed chromatin, contiguous to the nuclear membrane, as well as nuclear fragmentation of condensed chromatin. Three fields per dish of approximately 500 nuclei were counted; mean values are expressed as the percent of apoptotic nuclei.

For experiment [2], the system named is hepatocytes, HuH-7, Hep G2 and Saos-2 cells. The experiment in a line: Coadministration of UDCA with each apoptosis-inducing agent, all cell types. How it is done:
Incubation of cells with bile acids. […] The medium was gently removed at the indicated time points and scored for nonviable cells by trypan blue dye exclusion. The attached cells were fixed for morphologic assessment of apoptotic changes. […] HuH-7 cells were incubated with Dulbecco's medium supplemented with either 1 nM TGF-β1 (R & D Systems, Minneapolis, Minn.), 100 μM UDCA, TGF-β1+UDCA, or no addition (control) for 24 h, 48 h, and 72 h. Hep G2 cells were incubated with Dulbecco's medium supplemented with either 0.5 μg/ml of anti-Fas antibody CH-11 (Upstate Biotechnology, Inc., Lake Placid, N.Y.), 100 μM UDCA, CH-11+UDCA, or no addition for 48 h. […] Morphological evaluation of apoptosis. Morphology was performed as described previously (Oberhammer et al., Proc. Natl. Acad. Sci. USA 89, 5408-5412 (1992)). […] Fluorescence was visualized with a Zeiss standard fluorescence microscope (Carl Zeiss, Inc., Thornwood, N.Y.). Photographs were taken with Kodak Ektar-1000 film (Eastman Kodak Co.). Stained nuclei were scored by blind analysis and categorized according to the condensation and staining characteristics of chromatin. Normal nuclei were identified as noncondensed chromatin dispersed over the entire nucleus. Apoptotic nuclei were identified by condensed chromatin, contiguous to the nuclear membrane, as well as nuclear fragmentation of condensed chromatin.

The subject of experiment [3] is Hep G2 cells. The experiment in a line: FACS analysis of ΔΨm and ROS, Hep G2 cells. Here is the method:
A ΔΨm and ROS measurement. ΔΨm and ROS production were measured by FACScan (Becton Dickinson) analysis. Freshly isolated rat hepatocytes were cultured for 3 h as described above and then incubated with William's E medium supplemented with either 100 μM DCA, 100 μM UDCA, equal molar amounts of both, or no bile acid (control), for 6 h. Rat hepatocytes were also cultured with either 1% ethanol, 100 μM UDCA, ethanol+UDCA, or no addition (control) for 4 h. HuH-7 cells, Hep G2 cells, and human osteogenic sarcoma Saos-2 cells were incubated with TGF-β1, anti-Fas antibody or okadaic acid, respectively, for 48 h under the same conditions as outlined above. For combination studies, cells were pretreated with UDCA or hyodeoxycholic acid for 60 min prior to addition of DCA, ethanol, TGF-β1, anti-Fas antibody or okadaic acid. Aliquots of 1.0×10^6 cells were incubated for 15 min at 37° C. with 50 nM 3,3′-dihexyloxacarbocyanine iodide [DiOC6(3)], 2 μM dihydroethidium (HE), or 5 μM 2′,7′-dichlorofluorescin diacetate (H2DCFDA; Molecular Probes, Inc. Eugene, Oreg.) and analyzed by cytofluorometry (Cathcart et al., Anal. Biochem., 134, 111-116 (1983); Zamzami et al., J. Exp. Med., 181, 1661-1672 (1 995); Carter et al., J. Leukocyte Biol., 55, 253-258 (1994)).
Rat primary hepatocytes were incubated with 100 μM DCA and 1% ETOH for 6 h and 4 h, respectively; HuH-7 cells with 1 nM TGF-β1 for 48 h; Hep G2 cells with 0.5 μg/ml anti-Fas antibody (CH-11) for 48 h, and Saos-2 cells with 50 nM okadaic acid (OA) for 48 h. In each combination group, cells were pretreated with 100 μM UDCA alone for 60 min prior to addition of the inducer. Aliquots of 1.0×10^6 cells were incubated for 15 min at 37° C. with 5 μM 2′,7′-dichlorofluorescin diacetate (H2DCFDA) and analyzed by cytofluorometry.
On the technique in general: Flow cytometry measures light scatter and fluorescence of single cells or particles in a stream.

Setting [4] is: inducer CH-11, Hep G2, inhibition by UDCA.

As for `C[C@H](CCC(=O)O)[C@H]1CC[C@H]2[C@@H]3[C@@H](O)C[C@@H]4C[C@H](O)CC[C@]4(C)[C@H]3CC[C@]12C` [UDCA, ursodeoxycholic acid], the cell viability (commonly a read-out of living cells in per cent, often relative to untreated cells) in experiment [1] (0.5% ethanol + 50 μM UDCA) is 79.5±7.9%. Moreover, the “Inhibition % Apoptosis” value in experiment [1] (inducer ETOH, hepatocytes, inhibition by UDCA) amounted to 75.9 ± 13.8%. Further, the “inhibition of apoptotic changes” value in experiment [2] is recorded as 50-100%. In addition, the “Peroxides Production (%) Inducer + UDCA” value in experiment [3] (0.5 μg/ml CH-11 48 h, 100 μM UDCA pretreatment 60 min) is reported as 6.2 ± 1.3 %. The inhibition (commonly the change of the read-out against control, counted positive when it falls) at 100 µM in experiment [3] (Homo sapiens, HepG2, inducer CH-11, Hep G2, 100 μM UDCA, read-out: % Inhibition of peroxides production) was 52.2 ± 14.9%. In experiment [3] (setting [4]), the “Inhibition % Superoxide Anion” value was 55.1 ± 10.8 % and the “Inhibition % _Ψm” value is 63.1 ± 11.9%.
